Reference: ChEMBL document CHEMBL1156654, “Antineoplastic agents. 552. Oxidation of combretastatin A-1: trapping the o-quinone intermediate considered the metabolic product of the corresponding phosphate prodrug” (2008)
≈ marks a conversion by molar mass, not a printed value.

Key:
Assay type in all cases: functional
[1] = Antitumor activity against mouse MHEC5T cells xenografted in SCID mouse assessed as reduction in tumor blood flow at 100 mg/kg after 1 hrs; design: scale not given: the % may be the effect or the level left
[2] = Antitumor activity against mouse MHEC5T cells xenografted in SCID mouse assessed as reduction in tumor blood flow at 100 mg/kg after 24 hrs; design: scale not given: the % may be the effect or the level left
[3] = Antitumor activity against mouse MHEC5T cells xenografted in SCID mouse assessed as reduction in tumor blood flow at 100 mg/kg after 72 hrs; design: scale not given: the % may be the effect or the level left
[4] = test system: P388; assay: Growth inhibition of mouse P388 cells; settings: read-out: ED50 (the source's name)

Row | Compound | Activity [1] [%] | Activity [2] [%] | Activity [3] [%] | EC50 [4] [µg/mL]
1 | COc1cc(/C=C\c2ccc(OC)c(OP(=O)([O-])[O-])c2OP(=O)([O-])[O-])cc(OC)c1OC.[Na+].[Na+].[Na+].[Na+] | 50 | 90 | 27 | 
2 | COc1cc(/C=C\c2ccc(OC)c3nc4ccccc4nc23)cc(OC)c1OC |  |  |  | 0.2 (≈ 0.497 µM)
3 | COc1cc2nc3c(/C=C\c4cc(OC)c(OC)c(OC)c4)ccc(OC)c3nc2cc1OC |  |  |  | 0.2 (≈ 0.432 µM)
